Laboratory results: US20100267561A1, “HERBICIDAL PYRIDAZINONE DERIVATIVES” (priority 2007, published 2010)
Read-outs that look alike come from different tables or passages of the source.

Columns and labels:
Assay in all cases: Test B pre-/postemergence plant response
Format in all cases: in vivo
[1] = tested on: pigweed (Amaranthus retroflexus); details: for pest or weed control at 31 g/ha / pest or weed control at 62 g/ha: Amaranthus retroflexus, read-out: Plant response rating, Pigweed; for pest or weed control at 31 g/ha: 31 g ai/ha; for pest or weed control at 62 g/ha: 62 g ai/ha, 100 complete control
Excerpt: (§1) Seeds of plant species selected from blackgrass (Alopecurus myosuroides), downy bromegrass (Bromus tectorum), green foxtail (Setaria viridis), Italian ryegrass (Lolium multiflorum), wheat (Triticum aestivum), wild oat (Avena fatua), catchweed bedstraw (Galium aparine), bermudagrass (Cynodon dactylon), surinam grass (Brachiaria decumbens), cocklebur (Xanthium strumarium), corn (Zea mays), large crabgrass (Digitaria sanguinalis), woolly cupgrass (Eriochloa villosa), giant foxtail (Setaria faberii), goosegrass (Eleusine indica), johnsongrass (Sorghum halepense), kochia (Kochia scoparia), lambsquarters (Chenopodium album), morningglory (Ipomoea coccinea), eastern black (E.B.) nightshade (Solanum ptycanthum), yellow nutsedge (Cyperus esculentus), pigweed (Amaranthus retroflexus), common ragweed (Ambrosia elation), Russian thistle (Salsola iberica), soybean (Glycine max), common (oilseed) sunflower (Helianthus annuus), and velvetleaf (Abutilon theophrasti) were planted and treated preemergence with test chemicals formulated in a non-phytotoxic solvent mixture which included a surfactant.
(§2) At the same time, plants selected from these crop and weed species and also winter barley (Hordeum vulgare), canarygrass (Phalaris minor), chickweed (Stellaria media) and windgrass (Apera spica-venti) were treated with postemergence applications of some of the test chemicals formulated in the same manner. Plants ranged in height from 2 to 18 cm (1- to 4-leaf stage) for postemergence treatments.
(§3) Plant species in the flooded paddy test consisted of rice (Oryza sativa), umbrella sedge (Cyperus difformis), ducksalad (Heteranthera limosa) and barnyardgrass (Echinochloa crus-galli) grown to the 2-leaf stage for testing. At time of treatment, test pots were flooded to 3 cm above the soil surface, treated by application of test compounds directly to the paddy water, and then maintained at that water depth for the duration of the test. Treated plants and controls were maintained in a greenhouse for 13 to 15 days, after which time all species were compared to controls and visually evaluated. Plant response ratings, summarized in Table B, are based on a scale of 0 to 100 where 0 is no effect and 100 is complete control. A dash (-) response means no test result.

[2] = tested on: common (oilseed) sunflower (Helianthus annuus); details: Preemergence
Excerpt: as §1, §2, §3

[3] = tested on: common ragweed (Ambrosia elation); details: for pest or weed control at 31 g/ha / pest or weed control at 62 g/ha: Ambrosia, read-out: Plant response rating, Ragweed; for pest or weed control at 31 g/ha: 31 g ai/ha; for pest or weed control at 62 g/ha: 62 g ai/ha, 100 complete control
Excerpt: as §1, §2, §3

[4] = tested on: eastern black (E.B.) nightshade (Solanum ptycanthum); details: Preemergence
Excerpt: as §1, §2, §3

[5] = tested on: velvetleaf (Abutilon theophrasti); details: for pest or weed control at 31 g/ha / pest or weed control at 62 g/ha: Abutilon theophrasti, read-out: Plant response rating, Velvetleaf; for pest or weed control at 31 g/ha: 31 g ai/ha; for pest or weed control at 62 g/ha: 62 g ai/ha, 100 complete control
Excerpt: as §1, §2, §3

[6] = tested on: johnsongrass (Sorghum halepense); details: for pest or weed control at 31 g/ha / pest or weed control at 62 g/ha: Sorghum halepense, read-out: Plant response rating, Johnsongrass; for pest or weed control at 31 g/ha: 31 g ai/ha; for pest or weed control at 62 g/ha: 62 g ai/ha, 100 complete control
Excerpt: as §1, §2, §3

[7] = tested on: wild oat (Avena fatua); details: for Oat, Wild plant response rating: postemergence, 0-100 scale
Excerpt: as §1, §2, §3

[8] = 8 g ai/ha, postemergence, 0-100 scale
[9] = 16 g ai/ha, postemergence, 0-100 scale
[10] = post-emergence, Postemergence, scale 0 to 100
[11] = post-emergence, Postemergence, scale 0 to 100, 0 no effect
[12] = pre-emergence, Preemergence, scale 0 to 100 (0 no effect, 100 complete control)
[13] = pre-emergence, Preemergence, 0 to 100 scale, 0 no effect
[14] = Preemergence, 8 g ai/ha, scale 0 to 100 (0 no effect, 100 complete control)
[15] = Preemergence, 16 g ai/ha, scale 0 to 100
[16] = 8 g ai/ha, scale 0 to 100 (0 no effect, 100 complete control)

## Cc1cc(-c2ccc(Br)cc2)nn1-c1c(O)cn[nH]c1=O [Compound 78, 4-[3-(4-bromophenyl)-5-methyl-1H-pyrazol-1-yl]-5-hydroxy-3(2H)-pyridazinone]
[1]; [8]
  Pigweed plant response rating: 0
[1]; [9]
  Pigweed plant response rating: 0
[1]; [10]
  pest or weed control at 31 g/ha: 0%
[1]; [11]
  pest or weed control at 62 g/ha: 0%
[1]; [12]
  pest or weed control at 31 g/ha: 0%
[1]; [13]
  pest or weed control at 62 g/ha: 0%
[1]; [14]
  Pigweed plant response rating: 0
[1]; [15]
  Pigweed plant response rating: 0
[2]; Helianthus annuus, pre-emergence, 31 g ai/ha, scale 0 to 100 (0 no effect, 100 complete control), read-out: Plant response rating, Sunflower
  pest or weed control at 31 g/ha: 0%
[2]; Helianthus annuus, pre-emergence, 62 g ai/ha, 0 to 100 scale, 0 no effect, 100 complete control, read-out: Plant response rating, Sunflower
  pest or weed control at 62 g/ha: 0%
[2]; [16]
  Sunflower plant response rating: 0
[2]; 16 g ai/ha, scale 0 to 100
  Sunflower plant response rating: 0
[3]; [8]
  Ragweed plant response rating: 0
[3]; [9]
  Ragweed plant response rating: 0
[3]; [10]
  pest or weed control at 31 g/ha: 0%
[3]; [11]
  pest or weed control at 62 g/ha: 60%
[3]; [12]
  pest or weed control at 31 g/ha: 0%
[3]; [13]
  pest or weed control at 62 g/ha: 0%
[3]; [14]
  Ragweed plant response rating: 0
[3]; [15]
  Ragweed plant response rating: 0
[4]; [16]
  Nightshade, E. B. plant response rating: 0
[4]; 16 g ai/ha, scale 0 to 100
  Nightshade, E. B. plant response rating: 0
[4]; Solanum, pre-emergence, 31 g ai/ha, scale 0 to 100 (0 no effect, 100 complete control), read-out: Plant response rating, Nightshade, E. B.
  pest or weed control at 31 g/ha: 0%
[4]; Solanum, pre-emergence, 62 g ai/ha, 0 to 100 scale, 0 no effect, 100 complete control, read-out: Plant response rating, Nightshade, E. B.
  pest or weed control at 62 g/ha: 55%
[5]; [8]
  Velvetleaf plant response rating: 0
[5]; [9]
  Velvetleaf plant response rating: 0
[5]; [10]
  pest or weed control at 31 g/ha: 0%
[5]; [11]
  pest or weed control at 62 g/ha: 0%
[5]; [12]
  pest or weed control at 31 g/ha: 0%
[5]; [13]
  pest or weed control at 62 g/ha: 0%
[5]; [14]
  Velvetleaf plant response rating: 0
[5]; [15]
  Velvetleaf plant response rating: 0
[6]; [8]
  Johnsongrass plant response rating: 75
[6]; [9]
  Johnsongrass plant response rating: 100
[6]; [14]
  Johnsongrass plant response rating: 60
[6]; [15]
  Johnsongrass plant response rating: 80
[6]; [10]
  pest or weed control at 31 g/ha: 100%
[6]; [11]
  pest or weed control at 62 g/ha: 100%
[6]; [12]
  pest or weed control at 31 g/ha: 95%
[6]; [13]
  pest or weed control at 62 g/ha: 100%
[7]; 8 g ai/ha
  Oat, Wild plant response rating: 98
[7]; 16 g ai/ha
  Oat, Wild plant response rating: 100
[7]; Avena fatua, post-emergence, Postemergence, 31 g ai/ha, scale 0 to 100, read-out: Plant response rating, Oat, Wild
  pest or weed control at 31 g/ha: 100%
[7]; Avena fatua, post-emergence, Postemergence, 62 g ai/ha, scale 0 to 100, 0 no effect, 100 complete control, read-out: Plant response rating, Oat, Wild
  pest or weed control at 62 g/ha: 100%
